Measurements: patent publication US10076578B2, “Probes for imaging of hypoxia” (Vanderbilt University, priority 2014, dated 2018)
Structures can show the parent of a compound that is named as a salt.

Assays:
R28 cells [1] = assay: BrdU cell proliferation assay (in vitro toxicity); assay type: cell-based, rat; details: up to 100 μM, 24 h
Method: FIG. 3A-3B. […] (n=4), p<0.01.
For in vitro toxicity studies, a BrdU cell proliferation assay was performed on R28 cells. The assay was performed according to the manufacturer's protocol with the following specifications. Cells were seeded at 2000 cells/well in a 96-well plate. 24 h after seeding, the cells were serum starved for 6 h. Imaging agents and vehicle controls diluted in complete media were added and allowed to incubate for 24 h. 4 h prior to the end of the incubation, BrdU was added at a concentration of 10 μM.
Both imaging agents were not acutely toxic to retinal cells as assessed by BrdU cell proliferation assays (FIG. 3).

[2] = system: primary human Müller cells; assay: in vitro imaging agent uptake assay (microplate fluorescence spectrophotometric assay); assay type: cell-based; details: for increase in hypoxic/normoxic fluorescence intensity ratio: 100 μM; for increase in hypoxic/normoxic fluorescence intensity ratio / dose dependence of fluorescence in hypoxic cells: 12 h hypoxia; for dose dependence of fluorescence in hypoxic cells: Müller cells, n=8
Method: (§1) Primary human Müller cells and R28 cell line were grown in low glucose DMEM supplemented with 10% Fetal Bovine Serum, 1× GlutaMAX, and 1× Penicillin-Streptomycin. All cells were maintained in a humidified environment with 5% CO2 at 37° C. unless otherwise noted. For hypoxia induction, assay plates were placed into a humidified chamber and ambient air was displaced with a mixture of 5% CO2 and 95% N2 at a flow rate of 20 L/min for 5 min according to manufacturer instructions and published methods (28). The chamber was clamped and placed at 37° C. for the remainder of the time point. R28 cells were treated with 100 μM pimonidazole hydrochloride diluted in complete media and subjected to hypoxia or normoxia for 4 h.
(§2) To perform in vitro imaging agent uptake assays, R28 cells or primary human Müller cells were seeded at a density of 15,000 cells per well in a 96-well black plate with clear bottom. When 90% confluent, assay plates were either place in hypoxia or kept in normoxia for 12 h. They were treated with imaging agents diluted in complete media and returned to hypoxia or kept in normoxia for 30 min. They were washed 4 times with pre-warmed Hank's Buffered Salt Solution (HBSS), kept in normoxia for 1 h, then washed 4 more times in HBSS. Fluorescence intensity was read ([…]: 490 nm, Emission: 520 nm) using a Synergy Mx Plate Reader from Biotek.
(§3) In order to measure the specificity of HYPOX-1 and HYPOX-2 for hypoxic retinal tissues in vitro, R28 rat retinal neuronal (17, 18) or primary human Müller cells (19) were conditioned in a hypoxic chamber purged with a mixture of nitrogen/carbon dioxide up to 12 h. These two cell lines model predominant oxygen-sensitive cell types in retinal diseases with a hypoxia-ischemia component (20). […] The micromolar doses of HYPOX-1 and HYPOX-2 used in these experiments are modeled on doses used to achieve optimal signal to background ratios using pimonidazole immunohistochemistry (21).

[3] = system: R28 rat retinal neuronal cells; assay: as above; assay type: cell-based; details: for dose dependence of fluorescence in hypoxic cells: 12 h hypoxia, n=8
Method: as §1, §2, §3

[4] = system: Human Retinal Microvascular Endothelial Cells (HRMEC); assay: Western analysis of cell lysates with anti-Hypoxyprobe antibody; assay type: cell-based; details: 100 μM, 4 h, hypoxic vs normoxic HRMEC
Method: FIG. 2G. HYPOX-1 accumulation in hypoxic retinal cells occur through nitroimidazole adduct formation. Human Retinal Microvascular Endothelial Cells (HRMEC) were treated with 100 μM HYPOX-1 under normoxic or hypoxic conditions for 4 h. Cell lysates were probed with an anti-Hypoxyprobe antibody by Western analysis.
(§4) Imaging of R28 cells incubated with the hypoxia-sensitive imaging agents further confirmed specificity and mechanism of action.

[5] = system: avascular hypoxic retina of OIR mice; assay: mouse model of oxygen induced retinopathy (OIR), ex vivo imaging of retinal flatmounts; assay type: in vivo
From the text: FIG. 4A-4F. […] FIGS. 4(A) and 4(C) HYPOX-1 in P13 OIR mouse retina. FIGS. 4(B) and 4(D) Pimonidazole immunostaining colocalizes with HYPOX-1 region. […] FIG. 5. Retinal flatmounts from OIR mice intravenously injected with HYPOX-1 (green) were stained with endothelial cell marker, ICAM-2 (red). Accumulation of HYPOX-1 is observed in avascular retina. The mouse model of oxygen induced retinopathy (OIR) was selected as a mouse model for hypoxia and generated as published (24). Briefly, litters with 6 to 8 pups were placed into a 75% oxygen chamber with dams from P7-P12. On P12, pups were removed from the hyperoxic environment to room air. Imaging agents, vehicle controls and dye controls were intravitreally injected (3 μg in 1 μL injection volume) or intravenously injected via tail vein (60 mg/kg) 6 h after removal from hyperoxic environment. Pimonidazole hydrochloride (Hypoxyprobe Inc.) was injected intraperitoneally at a concentration of 60 mg/kg body weight. Immunofluorescence analysis of retinal tissues was performed by dissecting retinas from ocular tissues and fixing them in 10% neutral buffered formalin for 2 h. Tissues were then rinsed in Tris buffered saline and blocked/permeabilized in 10% donkey serum with 1% Triton X-100/0.05% Tween 20 in TBS for 6 h. Retinas were then stained for ICAM-2 and Hypoxyprobe followed by secondary antibody staining as indicated. […] Staining of excised retinas with ICAM-2 was used to identify retinal vasculature and its association with HYPOX staining. […] In addition, HYPOX accumulation in retinal tissue can be accomplished through intraocular or intravenous injection routes.

R28 cells [6] = assay: immunofluorescence imaging of cells incubated with imaging agent; assay type: cell-based, rat; details: 100 μM, 4 h
Method: FIG. 2A-2F. R28 retinal neuronal cell lines conditioned under normoxic or hypoxic (4 h) conditions were incubated with 100 μM HYPOX-2 followed by fixation and immunostaining with an antibody specific for pimonidazole adducts in hypoxic cells.
Immunofluorescence analysis of cells was performed by seeding R28 cells at a density of 15,000 cells per well of 8-well chamber slides. When 90% confluent, cells were treated with either imaging agent and pimonidazole hydrochloride or imaging agent only, diluted in complete media, and placed in hypoxia or normoxia for 4 h. Cells were washed 4 times in HBSS, fixed for 10 min with 10% neutral buffered formalin at room temperature, washed 3 times with tris buffered saline and mounted with Prolong Gold with DAPI mounting media.
as §4

R28 cells [7] = assay: Hypoxyprobe adduct immunostaining of normoxia- or hypoxia-conditioned cells; assay type: cell-based, rat; details: 100 μM
Method: as §1, with “FIG. 1A. R28 cells were treated with 100 μM pimonidazole hydrochloride (Hypoxyprobe) and subjected to normoxia or hypoxia-conditioning for 4 h, followed by Hypoxyprobe adduct immunostaining. […] Primary” for “Primary”, “h. In order to measure the specificity of HYPOX-1 and HYPOX-2 for hypoxic retinal tissues in vitro, R28 rat retinal neuronal (17, 18) or primary human Müller cells (19) were conditioned in a hypoxic chamber purged with a mixture of nitrogen/carbon dioxide up to 12 h. These two cell lines model predominant oxygen-sensitive cell types in retinal diseases with a hypoxia-ischemia component (20). […]” for “h.”

Row | Compound | cell proliferation (BrdU incorporation) (R28 cells [1]) | increase in hypoxic/normoxic fluorescence intensity ratio ([2]; human Müller cells) [fold] | dose dependence of fluorescence in hypoxic cells [2] | detectability of probe ([2]; concentrations lower than 50 μM) | fluorescence intensity of hypoxia-conditioned vs normoxia-conditioned cells ([2]; human Müller cells) | fluorescence intensity of hypoxia-conditioned vs normoxia-conditioned cells [3] | dose dependence of fluorescence in hypoxic cells [3] | nitroimidazole adduct formation (Western) [4] | accumulation in retina, intraocularly injected ([5]; OIR mice P13, intravitreal 3 μg, retinal flatmounts) | accumulation in retina, intravenously injected ([5]; OIR mice, tail vein 60 mg/kg, ICAM-2 co-staining) | accumulation in retina of age matched control mice ([5]; room air control mice with fully vascularized retinas) | greater fluorescence intensity in hypoxia-conditioned cells ([2]; 10 μM, human Müller cells) [fold] | pimonidazole adducts by adduct-specific antibody (R28 cells [6]; hypoxic R28 cells, but not normoxic cells) | accumulation in cells (fluorescence imaging) (R28 cells [6]; hypoxic vs normoxic R28 cells) | Hypoxyprobe adduct immunostaining, hypoxia-conditioned cells (R28 cells [7]; 4 h hypoxia) | Hypoxyprobe adduct immunostaining, normoxia-conditioned cells (R28 cells [7]; 4 h normoxia) | Hypoxyprobe immunostaining of central avascular retina ([5]; OIR mice, intraperitoneal 60 mg/kg) | accumulation in retina of room air mice (Hypoxyprobe staining) ([5]; room air mice)
1 | O=C1OC2(c3ccc(O)cc3Oc3cc(O)ccc32)c2ccc(NC(=S)NCCCCCn3ccnc3[N+](=O)[O-])cc21 [HYPOX-1] | no significant decrease in cell proliferation | 5 | dose-dependent fluorescence enhancement | not detectable | significantly higher fluorescence intensity | significantly higher fluorescence intensity | dose-dependent fluorescence enhancement | Adduct formation was increased in hypoxic cells | accumulation of intraocularly-injected HYPOX-1 in central avascular retinas | accumulated in avascular regions | did not accumulate |  |  |  |  |  |  | 
2 | O=C1OC2(c3ccc(O)cc3Oc3cc(O)ccc32)c2ccc(NC(=S)NCC3CCN(CC(O)Cn4ccnc4[N+](=O)[O-])CC3)cc21 (stereo not drawn) [HYPOX-2] | no significant decrease in cell proliferation | 11 | dose-dependent fluorescence enhancement |  | significantly higher fluorescence intensity | significantly higher fluorescence intensity | dose-dependent fluorescence enhancement |  |  |  |  | 32 | positive for pimonidazole adducts | accumulated in hypoxic cells but not normoxic cells |  |  |  | 
3 | O=[N+]([O-])c1nccn1CC(O)CN1CCCCC1 (stereo not drawn) [pimonidazole hydrochloride, reference compound] |  |  |  |  |  |  |  |  |  |  |  |  |  |  | positive staining | minimal fluorescence | positive immunostaining | no pimonidazole accumulation
